Results from patent US9586953B2, “Prodrugs of amino quinazoline kinase inhibitor” (GlaxoSmithKline Intellectual Property Development Limited, priority 2012, dated 2017).

Columns and labels:
[1] = In vivo Assay (II): half life of the prodrug after oral administration in minipig; set-up: species or system male Göttingen minipigs; conditions: male, Göttingen, whole blood, minipig (n=3), orally administered at a dose equivalent to 2 mg/kg of the parent ethanol compound, LC/MS, read-out: half life (T1/2)
Protocol: (§1) 2-((4-(Benzo[d]thiazol-5-ylamino)-6-(tert-butylsulfonyl)quinazolin-7-yl)oxy)ethyl dihydrogen phosphate was orally administered at a dose equivalent to 2 mg/kg of 2-((4-(benzo[d]thiazol-5-ylamino)-6-(tert-butylsulfonyl)quinazolin-7-yl)oxy)ethanol to a series of test animals. Rats (n=2) and dogs (n=3) were administered 2-((4-(benzo[d]thiazol-5-ylamino)-6-(tert-butylsulfonyl)quinazolin-7-yl)oxy)ethyl dihydrogen phosphate, whereas minipigs (male Göttingen minipigs (n=3)) were administered 2-((4-(benzo[d]thiazol-5-ylamino)-6-(tert-butylsulfonyl)quinazolin-7-yl)oxy)ethyl disodium phosphate. Blood samples were taken from each test animal at intervals between 0 to 24 hrs (25 hrs in dog) after administration. The concentration 2-((4-(benzo[d]thiazol-5-ylamino)-6-(tert-butylsulfonyl)quinazolin-7-yl)oxy)ethanol in each sample was determined by LC/MS. The average blood concentrations of 2-((4-(benzo[d]thiazol-5-ylamino)-6-(tert-butylsulfonyl)quinazolin-7-yl)oxy)ethanol in each test species, following oral administration of 2-((4-(benzo[d]thiazol-5-ylamino)-6-(tert-butylsulfonyl)quinazolin-7-yl)oxy)ethyl dihydrogen phosphate or disodium phosphate are shown in FIG. 4.

[2] = In vivo Assay (II): half life of the prodrug after oral administration in dog; conditions: whole blood, dog (n=3), orally administered at a dose equivalent to 2 mg/kg of the parent ethanol compound, LC/MS, read-out: half life (T1/2)
Protocol: as §1

[3] = In vivo Assay (II): half life of the prodrug after oral administration in rat; conditions: whole blood, rat (n=2), orally administered at a dose equivalent to 2 mg/kg of the parent ethanol compound, LC/MS, read-out: half life (T1/2)
Protocol: as §1

half-life [1]	half-life [2]	half-life [3]	SMILES
26 min			CC(C)(C)S(=O)(=O)c1cc2c(Nc3ccc4scnc4c3)ncnc2cc1OCCOP(=O)(O)O [Example 2, 2-((4-(Benzo[d]thiazol-5-ylamino)-6-(tert-butylsulfonyl)quinazolin-7-yl)oxy)ethyl disodium phosphate]
	5 min	15 min	CC(C)(C)S(=O)(=O)c1cc2c(Nc3ccc4scnc4c3)ncnc2cc1OCCOP(=O)(O)O [Example 1, 2-((4-(Benzo[d]thiazol-5-ylamino)-6-(tert-butylsulfonyl)quinazolin-7-yl)oxy)ethyl dihydrogen phosphate]
